# Reference: patent US20250179059A1 (The Regents of the University of California, priority 2021, published 2025)
# Structures can show the parent of a compound that is named as a salt.
# Target: T1, human BRD4 bromodomain II (Homo sapiens, UniProt O60885)
# T1 construct: human BRD4 bromodomain II [based on Genbank NM_058243, residues 349-460]; host or cells: E. coli
# Experiment: Bromodomain binding assay (AlphaScreen), BRD4 BDII
# Settings: AlphaScreen assay, Table C2; read-out: BRD4 BDII IC50
# Protocol: Bromodomain Binding Assay
# The bromodomain binding assay utilizes AlphaScreen technology. Compounds compete with a biotinylated peptide ligand (from histone H4: aa 1-21, K5/K8/K12/K16Ac-biotin) for binding to a hexahistidine (His6)-tagged bromodomain. Peptide binding is detected by fluorescence signal after singlet oxygen energy transfer from peptide-bound AlphaScreen streptavidin-coated donor beads to His6-tagged bromodomain-bound nickel-chelate acceptor beads (PerkinElmer). Briefly, 8 μL 2.5× bromodomain (E. coli expressed, N-terminal His6-tagged human BRD4 bromodomain II [based on Genbank NM_058243, residues 349-460] or N-terminal His6-tagged human BRD4 bromodomain I [residues 44-170]) in reaction buffer (50 mM HEPES [pH 7.5], 100 mM NaCl, 0.05% CHAPS, 0.1% BSA, 1% DMSO) is added to wells of an assay plate (384-well low flange white, flat bottom, polystyrene microplate, Corning #3572; buffer only is added to some wells as a negative control). A compound concentration series (10 concentrations, 3-fold serial dilutions previously prepared in 100% DMSO, or 100% DMSO only negative control) is delivered to the assay plate with an Echo 550 acoustic liquid handler (Labcyte), followed by plate centrifugation and incubation for 30 minutes at room temperature. Then 4 μL 5× biotinylated peptide ligand is added, followed by plate centrifugation and gentle shaking for 30 minutes at room temperature to mix. After this incubation, 4 μL 5× donor beads are added, and the plate is centrifuged, followed by brief gentle shaking to mix. Finally, 4 μL 5× acceptor beads are added, and the plate is centrifuged, followed by gentle shaking for 60 minutes at room temperature in the dark. AlphaScreen signal (excitation/emission: 680 nm/520-620 nm) is detected with an EnSpire multimode plate reader (PerkinElmer). Percentage peptide binding is plotted as a function of concentration, and curve fitting is used to determine competitive compound binding ICsos.
row,SMILES,IC50
1,"CC(=O)Nc1ccc(-c2cccc(-c3cc(N4CCNCC4)sn3)c2O)cc1 [Example 8, N-(2′-Hydroxy-3′-(5-(piperazin-1-yl)isothiazol-3-yl)-[1,1′-biphenyl]-4-yl)acetamide]",> 100 nM
2,"CC(=O)Nc1ccc(-c2cccc(-c3ccc(NC(C)=O)cc3)c2O)cc1 [Example 11, N,N′-(2′-hydroxy-[1,1′:3′,1″-terphenyl]-4,4″-diyl)diacetamide]",> 100 nM
3,"CC(=O)Nc1ccc(-c2cccc(-n3cnc(-c4ccc(F)cc4)c3)c2O)cc1 [Example 18, N-(3′-(4-(4-Fluorophenyl)-1H-imidazol-1-yl)-2′-hydroxy-[1,1′-biphenyl]-4-yl)acetamide]",> 100 nM
4,"CC(=O)Nc1ccc(-c2cccc(-c3cc(N4CCNCC4)no3)c2O)cc1OC(C)C [Example 20, N-(2′-Hydroxy-3-isopropoxy-3′-(3-(piperazin-1-yl)isoxazol-5-yl)-[1,1′-biphenyl]-4-yl)acetamide]",10 to 100 nM
5,"CC(=O)Nc1ccc(-c2cccc(-c3cc(N4CCNCC4)no3)c2O)cc1C [Example 21, N-(2′-Hydroxy-3-methyl-3′-(3-(piperazin-1-yl)isoxazol-5-yl)-[1,1′-biphenyl]-4-yl)acetamide hydrochloride]",> 100 nM
6,"COc1cc(-c2cccc(-c3cc(N4CCNCC4)no3)c2O)ccc1NC(C)=O [Example 23, N-(2′-Hydroxy-3-methoxy-3′-(3-(piperazin-1-yl)isoxazol-5-yl)-[1,1′-biphenyl]-4-yl)acetamide 2,2,2-trifluoroacetate]",> 100 nM
7,"CC(=O)Nc1ccc(-c2cccc(-c3cc(N4CCNCC4)no3)c2O)cc1OC1CCC1 [Example 24, N-(3-cyclobutoxy-2′-hydroxy-3′-(3-(piperazin-1-yl)isoxazol-5-yl)-[1,1′-biphenyl]-4-yl)acetamide 2,2,2-trifluoroacetate]",10 to 100 nM
8,"CC(=O)Nc1ccc(-c2cccc(-c3cc(N4CCNCC4)no3)c2O)cc1OC(F)(F)F [Example 25, N-(2′-hydroxy-3′-(3-(piperazin-1-yl)isoxazol-5-yl)-3-(trifluoromethoxy)-[1,1′-biphenyl]-4-yl)acetamide]",> 100 nM
9,"CC(=O)Nc1ccc(-c2cccc(-c3cc(N4CCNCC4)no3)c2O)cc1OC(F)F [Example 26, N-(3-(Difluoromethoxy)-2′-hydroxy-3′-(3-(piperazin-1-yl)isoxazol-5-yl)-[1,1′-biphenyl]-4-yl)acetamide 2,2,2-trifluoroacetate]",> 100 nM
10,"CC(=O)Nc1ccc(-c2cccc(-c3cc(N4CCNCC4)no3)c2O)cc1OC1CC2(COC2)C1 [Example 28, N-(3-(2-Oxaspiro[3.3]heptan-6-yloxy)-2′-hydroxy-3′-(3-(piperazin-1-yl)isoxazol-5-yl)-[1,1′-biphenyl]-4-yl)acetamide 2,2,2-trifluoroacetate]",10 to 100 nM
11,"CC(=O)Nc1ccc(-c2cccc(-c3ccc(NC(C)=O)c(F)c3)c2O)cc1F [Example 33, N,N′-(3,3″-Difluoro-2′-hydroxy-[1,1′:3′,1″-terphenyl]-4,4″-diyl)diacetamide]",> 100 nM
12,"CC(=O)Nc1ccc(-c2cccc(-c3cc(N4CCNCC4)no3)c2O)cc1F [Example 34, N-(3-Fluoro-2′-hydroxy-3′-(3-(piperazin-1-yl)isoxazol-5-yl)-[1,1′-biphenyl]-4-yl)acetamide trifluoroacetate]",10 to 100 nM
13,"CC(=O)Nc1ccc(-c2cccc(-c3cnn(-c4ccccc4)c3)c2O)cc1F [Example 35, N-(3-Fluoro-2′-hydroxy-3′-(1-phenyl-1H-pyrazol-4-yl)-[1,1′-biphenyl]-4-yl) acetamide]",> 100 nM
14,"CC(=O)N1CCCc2cc(-c3cccc(-c4cc(N5CCNCC5)no4)c3O)ccc21 [Example 36, 1-(6-(2-Hydroxy-3-(3-(piperazin-1-yl)isoxazol-5-yl)phenyl)-3,4-dihydroquinolin-1(2H)-yl)ethanone 2,2,2-trifluoroacetate]",> 100 nM
15,"CC(=O)Nc1ccc(-c2cccc(-c3ccc(NC(C)=O)nc3)c2O)cn1 [Example 40, N,N′-(5,5′-(2-Hydroxy-1,3-phenylene)bis(pyridine-5,2-diyl))diacetamide]",> 100 nM

# Continued, values first:
row,IC50,SMILES
1,> 100 nM,COc1c(-c2ccc(NC(C)=O)cc2)cccc1-c1cc(N2CCN(C)CC2)no1 [Example 7]
2,> 100 nM,"CC(=O)N(C)c1ccc(-c2cccc(-c3cc(N4CCNCC4)no3)c2O)cc1 [Example 9, N-(2′-Hydroxy-3′-(3-(piperazin-1-yl)isoxazol-5-yl)-[1,1′-biphenyl]-4-yl)-N-methylacetamide]"
3,> 100 nM,"CC(=O)Nc1ccc(-c2cccc(-c3ccccc3)c2O)cc1 [Example 12, N-(2′-Hydroxy-[1,1′:3′,1″-terphenyl]-4-yl)acetamide]"
4,> 100 nM,"CC(=O)Nc1ccc(-c2cccc(-c3cnn(C)c3)c2O)cc1 [Example 13, N-(2′-Hydroxy-3′-(1-methyl-1H-pyrazol-4-yl)-[1,1′-biphenyl]-4-yl)acetamide]"
5,> 100 nM,"CC(=O)Nc1ccc(-c2cccc(-c3cnn(-c4ccccc4)c3)c2O)cc1 [Example 14, N-(2′-Hydroxy-3′-(1-phenyl-1H-pyrazol-4-yl)-[1,1′-biphenyl]-4-yl)acetamide]"
6,> 100 nM,"CC(=O)Nc1ccc(-c2cccc(-c3cnn(C4CCNCC4)c3)c2O)cc1 [Example 15, N-(2′-Hydroxy-3′-(1-(piperidin-4-yl)-1H-pyrazol-4-yl)-[1,1′-biphenyl]-4-yl)acetamide]"
7,> 100 nM,"CC(=O)Nc1ccc(-c2cccc(-c3cnn(-c4ccc(F)cc4)c3)c2O)cc1 [Example 16, N-(3′-(1-(4-Fluorophenyl)-1H-pyrazol-4-yl)-2′-hydroxy-[1,1′-biphenyl]-4-yl)acetamide]"
8,> 100 nM,"CC(=O)Nc1ccc(-c2cccc(-c3cnn(C4CCN(C)CC4)c3)c2O)cc1 [Example 17, N-(2′-Hydroxy-3′-(1-(1-methylpiperidin-4-yl)-1H-pyrazol-4-yl)-[1,1′-biphenyl]-4-yl)acetamide]"
9,> 100 nM,"CCOc1cc(-c2cccc(-c3cc(N4CCNCC4)no3)c2O)ccc1NC(C)=O [Example 19, N-(3-Ethoxy-2′-hydroxy-3′-(3-(piperazin-1-yl)isoxazol-5-yl)-[1,1′-biphenyl]-4-yl)acetamide 2,2,2-trifluoroacetate]"
10,> 100 nM,"CCc1cc(-c2cccc(-c3cc(N4CCNCC4)no3)c2O)ccc1NC(C)=O [Example 22, N-(3-Ethyl-2′-hydroxy-3′-(3-(piperazin-1-yl)isoxazol-5-yl)-[1,1′-biphenyl]-4-yl)acetamide 2,2,2-trifluoroacetate]"
11,> 100 nM,"CC(=O)Nc1ccc(-c2cccc(-c3cc(N4CCNCC4)no3)c2O)cc1C(C)C [Example 27, N-(2′-Hydroxy-3-isopropyl-3′-(3-(piperazin-1-yl)isoxazol-5-yl)-[1,1′-biphenyl]-4-yl)acetamide 2,2,2-trifluoroacetate]"
12,> 100 nM,"CC(=O)N1CCC(=O)Nc2cc(-c3cccc(-c4cc(N5CCNCC5)no4)c3O)ccc21 [Example 29, 5-Acetyl-8-(2-hydroxy-3-(3-(piperazin-1-yl)isoxazol-5-yl)phenyl)-4,5-dihydro-1H-benzo[b][1,4]diazepin-2(3H)-one 2,2,2-trifluoroacetate]"
13,> 100 nM,"CC(=O)Nc1ccc(-c2cccc(-c3cc(N4CCNCC4)no3)c2O)c(F)c1 [Example 30, N-(2-Fluoro-2′-hydroxy-3′-(3-(piperazin-1-yl)isoxazol-5-yl)-[1,1′-biphenyl]-4-yl)acetamide 2,2,2-trifluoroacetate]"
14,> 100 nM,"CC(=O)N1CCc2cc(-c3cccc(-c4cc(N5CCNCC5)no4)c3O)ccc21 [Example 31, 1-(5-(2-Hydroxy-3-(3-(piperazin-1-yl)isoxazol-5-yl)phenyl)indolin-1-yl)ethanone 2,2,2-trifluoroacetate]"
15,10 to 100 nM,"CC(=O)Nc1ccc(-c2cccc(-c3cc(N4CCNCC4)no3)c2O)cc1Cl [Example 32, N-(3-Chloro-2′-hydroxy-3′-(3-(piperazin-1-yl)isoxazol-5-yl)-[1,1'-biphenyl]-4-yl)acetamide 2,2,2-trifluoroacetate]"
16,> 100 nM,"O=C1OCCN1c1ccc(-c2cccc(-c3cc(N4CCNCC4)no3)c2O)cc1 [Example 37, 3-(2′-Hydroxy-3′-(3-(piperazin-1-yl)isoxazol-5-yl)-[1,1′-biphenyl]-4-yl)oxazolidin-2-one 2,2,2-trifluoroacetate]"
17,> 100 nM,"CC(=O)N1CCC(=O)N(C)c2cc(-c3cccc(-c4cc(N5CCNCC5)no4)c3O)ccc21 [Example 38, 5-Acetyl-8-(2-hydroxy-3-(3-(piperazin-1-yl)isoxazol-5-yl)phenyl)-1-methyl-1,3,4,5-tetrahydro-2H-benzo[b][1,4]diazepin-2-one]"
18,> 100 nM,"O=C(Nc1ccc(-c2cccc(-c3cc(N4CCNCC4)no3)c2O)cc1)C(F)(F)F [Example 39, 2,2,2-Trifluoro-N-(2′-hydroxy-3′-(3-(piperazin-1-yl)isoxazol-5-yl)-[1,1′-biphenyl]-4-yl)acetamide 2,2,2-trifluoroacetate]"
